# Reference: article PMC7037862, “Tricyclic Nucleobase Analogs and Their Ribosides as Substrates and Inhibitors of Purine-Nucleoside Phosphorylases III. Aminopurine Derivatives” (Molecules, 2020)
# Experiments:
# [1] = Ionization constants (pKa), determined spectrophotometrically; type: physicochemical; conditions: phosphate and/or acetate buffers, protonation, read-out: pKa (protonation)
# Protocol: Fluorescence spectra were measured on a Varian Eclipse instrument (Varian Corp., Palo Alto, CA, USA), and UV absorption kinetic experiments were performed on a Cary 5000 (Varian Corp., Palo Alto, CA, USA) thermostated spectrophotometer. Fluorescence yields were determined relative to tryptophan (0.15) or 1,N^6-ethenoadenosine in water (0.56, see ref. [2]). Emission spectra were measured in semi-micro cuvettes, pathlength 4 mm, to diminish the inner-filter effect. Typical spectral resolution was 2.5 nm. The ionization constants (pKa values) were determined spectrophotometrically using 20–50 mM phosphate and/or acetate buffers.
# E. coli PNP [2] = target: T1, E. coli PNP (Escherichia coli, UniProt P0ABP8); assay: Inhibition of phosphorolysis of purine nucleosides catalyzed by E. coli PNP; type: biochemical; conditions: competitive inhibition of phosphorolysis of purine nucleosides; read-out: inhibition constant, Ki
# T1 construct: made in house; host or cells: E. coli
# Protocol: (§1) Etheno-tubercidine (6) is therefore a good candidate to observe enzyme-ligand complexes by spectral methods, as shown below. No inhibition of the calf PNP was observed, at least in moderate concentrations (up to 50 μM) that we used.
# (§2) Enzymatic ribosylation reactions were carried out in 1 mL cuvettes (pathlength 4 mm) in ~50 mM HEPES buffer, pH 7.3, using 0.5 mM R1P as a ribose source. Reactions were followed fluorimetrically (see Section 2.4). On a larger scale (2–4 mg), the reactions were run in Eppendorf tubes, volume 2–3 mL, using either R1P (3–10 mM) or 7-methylguanosine as ribose sources. Products were purified by semi-preparative HPLC, concentrated and the final solutions kept frozen. Their structure has been confirmed by NMR (see Section 2.4 and Supplementary Materials) and by MS: comp. 3: m/z = 292.10385, comp. 4: m/z = 292.10400, comp. 5: m/z = 292.10398, calculated for C12H13N5O4 + H: 292.10403. Phosphorolysis reactions were run in 40–50 mM phosphate buffer, pH 7.0 or 6.5, and followed spectrally or fluorimetrically. Kinetic parameters were calculated by standard methods.
# calf PNP = target: T2, calf PNP (Bos taurus, UniProt P55859); assay: Inhibition of calf PNP; type: biochemical; conditions: concentrations up to 50 μM
# T2 construct: made in house; host or cells: E. coli
# T2 sequence (P55859 1-289): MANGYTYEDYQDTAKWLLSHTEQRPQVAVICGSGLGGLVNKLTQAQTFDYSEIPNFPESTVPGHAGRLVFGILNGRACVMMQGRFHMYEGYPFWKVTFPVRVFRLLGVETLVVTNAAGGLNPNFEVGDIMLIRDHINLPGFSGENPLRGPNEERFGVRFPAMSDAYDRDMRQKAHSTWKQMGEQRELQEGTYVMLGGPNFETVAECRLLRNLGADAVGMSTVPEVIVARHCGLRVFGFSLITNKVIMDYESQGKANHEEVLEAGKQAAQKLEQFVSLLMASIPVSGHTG
# Protocol: as §1, §2
# E. coli PNP [3] = target: T1, E. coli PNP; assay: Fluorescence titration of E. coli PNP with ligand (enzyme-ligand complexes); type: binding; conditions: 40 mM phosphate buffer, pH 7, 20 °C; protein 11 μM per subunit
# Protocol: Additionally, the fluorescence excitation spectra reveal fluorescence energy transfer (FRET) from the protein to the complexed ligand, since they show marked enhancement in the region 270–280 nm, where the tyrosine residues of the PNP molecule absorb (Figure 10).
# Figure 10 Changes in fluorescence excitation (a) and emission spectra (b), observed during the titration of E. coli PNP with N^2,3-etheno-2-aminopurine (2). […] Spectra of the free ligand (3.5 μM) are given for comparison (points). Excitation spectrum of the protein, monitored at 310 nm, is given in black. Conditions: 40 mM phosphate, pH 7, at 20 °C. Concentration of protein was 10.1 μM (per subunit); that of the titrant was 0 to 3.5 μM. Lower panels: Fluorescence difference spectra, calculated from data presented on panels (a) and (b), (c) difference excitation (observed at 380 nm), (d) difference emission spectra, excited at 275 nm. Substrate concentrations are 0.17, 0.69, 1.37, 2.36 and 3.31 μM.
# Etheno-tubercidine (6) forms somewhat similar fluorescent complexes with the E. coli PNP. As shown below, FRET from the protein to the ligand is evident in the excitation spectra (Figure 11), and the ligand fluorescence blue shifted from 415 to ca. 390 nm (Figure 11b,c). In this case more than 60% of protein fluorescence is quenched when protein binding sites are saturated (cf. Figure 11). […]
# T1 sequence (P0ABP8 2-239): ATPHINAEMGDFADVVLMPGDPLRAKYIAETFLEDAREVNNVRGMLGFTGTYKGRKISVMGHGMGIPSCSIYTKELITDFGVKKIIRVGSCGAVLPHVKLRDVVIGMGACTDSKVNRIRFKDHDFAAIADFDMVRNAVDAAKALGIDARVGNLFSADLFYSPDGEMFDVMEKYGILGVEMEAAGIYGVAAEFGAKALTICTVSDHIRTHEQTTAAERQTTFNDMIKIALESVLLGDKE
smiles,measurement,setting,value
"OC[C@H]1O[C@@H](n2ccc3c2ncn2ccnc32)[C@H](O)[C@@H]1O [Compound 6, 1,N^6-etheno-tubercidine]",pKa,[1],5.2
same,Ki,E. coli PNP [2],~4.5 µM
same,inhibition of the calf PNP,calf PNP,No inhibition
same,protein fluorescence quenched at saturation of binding sites,E. coli PNP [3],more than 60%
